Article PMC11012289, “The Discovery of New Inhibitors of Insulin-Regulated Aminopeptidase by a High-Throughput Screening of 400,000 Drug-like Compounds” (International Journal of Molecular Sciences, 2024)

Columns and labels:
[1] = molecular target: T1, IRAP (Homo sapiens, UniProt Q9UIQ6); test: Primary fluorescence IRAP assay (L-Leucine-7-amido-4-methylcoumarin cleavage); type: biochemical; conditions: for Fluorescence pIC50 / IC50: 37.5 µM L-Leucine-7-amido-4-methylcoumarin, 60 min RT, dose-response 20 µM-27.4 nM; for LipE: calculated from (pIC50Fluorescence − LogD)
T1 construct: The screen was performed with the soluble truncated IRAP enzyme; made in house
T1 sequence (Q9UIQ6 155-1025 limits assumed): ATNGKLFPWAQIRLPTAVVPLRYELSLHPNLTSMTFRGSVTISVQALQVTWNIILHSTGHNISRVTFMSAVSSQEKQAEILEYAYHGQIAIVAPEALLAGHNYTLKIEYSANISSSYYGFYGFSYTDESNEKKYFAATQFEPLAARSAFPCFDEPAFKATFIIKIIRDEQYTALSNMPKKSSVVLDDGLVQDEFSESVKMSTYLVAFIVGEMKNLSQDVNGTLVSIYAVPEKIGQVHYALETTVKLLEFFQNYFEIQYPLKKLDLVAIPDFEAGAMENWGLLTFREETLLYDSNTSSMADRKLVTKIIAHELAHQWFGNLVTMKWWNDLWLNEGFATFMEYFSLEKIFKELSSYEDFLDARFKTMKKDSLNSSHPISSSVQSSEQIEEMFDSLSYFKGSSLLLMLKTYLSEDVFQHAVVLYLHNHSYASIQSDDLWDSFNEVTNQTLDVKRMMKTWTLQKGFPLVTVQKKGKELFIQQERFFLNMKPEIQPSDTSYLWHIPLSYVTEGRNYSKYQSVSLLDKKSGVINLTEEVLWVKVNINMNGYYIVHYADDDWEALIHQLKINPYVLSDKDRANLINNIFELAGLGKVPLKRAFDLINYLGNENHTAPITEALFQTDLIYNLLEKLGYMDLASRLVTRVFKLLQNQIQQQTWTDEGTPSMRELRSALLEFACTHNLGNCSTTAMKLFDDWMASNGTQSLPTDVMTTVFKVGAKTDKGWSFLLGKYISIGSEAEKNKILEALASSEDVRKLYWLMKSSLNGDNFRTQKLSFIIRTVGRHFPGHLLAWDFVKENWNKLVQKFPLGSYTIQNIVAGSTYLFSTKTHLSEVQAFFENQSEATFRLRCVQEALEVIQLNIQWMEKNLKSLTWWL
Excerpt: The primary biochemical assay was developed to measure the enzymatic activity of IRAP.
To ensure biochemically sound, optimal, robust, and affordable assay conditions for large-scale screening, several factors need to be considered. […] For both primary fluorescence and orthogonal absorbance assays, non-binding 1536-well assay plates were used, and 0.05% BSA was included in the assay buffer to minimize the issues associated with protein sticking to plastics. The substrate Km values were determined in two separate experiments using two different batches of IRAP protein. For this, the IRAP progress curve was monitored every 5 min for 2 h using an Envision multimode plate reader (PerkinElmer, Waltham, MA, USA).
First, 10 nL of test compounds (4 mM) or 100% DMSO was dispensed into the 1536-well assay plates using an Echo acoustic liquid handler (Beckman Coulter, Brea, CA, USA). Then, 2 μL of protein working solution (5 × 10^−4 mg/mL) was dispensed to the negative control (min effect) and compound wells (final well concentration 2.5 × 10^−4 mg/mL) using a Certus Flex liquid dispenser (Fritz Gyger AG, Thun, Switzerland) and 2 μL assay buffer to the positive control wells (max effect) using a FLEXdrop (PerkinElmer, Waltham, MA, USA).
Figure S9. Reference compounds in Fluorescence IRAP assay with different end volumes in 1536-well format.
mg/ml) and 2 or 4 µL L -Leucine-7-amido-4-methylcoumarin (f.a.c.
Plates were measured on the Envision every 10 minutes for 140 minutes (data
shown up to 2 hours). %Effect was calculated using no protein as MAX effect (assay buffer was added instead of IRAP).

[2] = molecular target: T1, IRAP; test: Deselection fluorescence IRAP assay with 10 µM zinc; type: biochemical; conditions: 10 µM ZnSO4 in assay buffer; for IC50: read-out: Fluorescence + Zn pIC50 (converted)
Procedure: To prepare the assay buffer (50 mM Tris-HCl pH 7.4, 150 mM NaCl, 0.1 mM PMSF, 0.05% BSA) of the primary and orthogonal assays, 1 M Tris-HCl was prepared by dissolving 60.57 g Trizma-base (Mw 121.14 g/mol) (Sigma 93362-250G) in 500 mL MQ water, and the pH was adjusted to 7.4 using 4 M HCl. The solution was filtered with a 0.45 μm filter and stored at room temperature (RT). Then, 2 M NaCl stock was prepared by dissolving 29.22 g NaCl (Mw 58.44 g/mol) (Sigma S7653-250G) in 250 mL MQ water. The solution was filtered with a 0.45 μm filter and stored at RT. Next, 100 mM Phenylmethanesulfonylfluoride (PMSF) stock was prepared by dissolving 1 g PMSF (Mw 174.19 g/mol) (Sigma 78830-1G) in 57.4 mL isopropanol (Sigma I9516-500ML) and stored at 4 °C. A 10% Bovine Serum Albumin (BSA) stock solution was prepared by dissolving 2 g BSA (Mw 66.5 kDa) (Sigma A7030-50G), which was dissolved in 20 mL MQ water. The solution was filtered with a 0.45 μm filter, aliquoted, and stored at −20 °C. For the deselection assay buffer (50 mM Tris-HCl pH 7.4, 150 mM NaCl, 0.1 mM PMSF, 0.05% BSA, 10 μM ZnSO4), 1 mM ZnSO4 solution was prepared by dissolving 28.8 mg ZnSO4 (Mw 287.56 g/mol) (Sigma Z0251-100G) in 100 mL MQ water. The solution was filtered with a 0.45 μm filter and stored at RT. For the TSA assay buffer (50 mM Tris HCL, 150 mM NaCl, pH 7.4), stocks of 1 M Tris HCL and 2 M NaCl were prepared as described above.

[3] = molecular target: T1, IRAP; test: Thermal shift (TSA) IRAP assay; type: binding; conditions: screening hits at 30 µM, 1% DMSO
Excerpt: The Thermal shift assay (TSA) is a biophysical technique measuring protein thermal stability. The assay relies on a fluorescent dye that is quenched in an aqueous environment but fluoresces when de-solvated in non-polar environments, such as the hydrophobic pockets of proteins. The target protein is mixed with the dye and heated gradually until it becomes completely denatured; as it unfolds or melts, the dye binds to newly exposed hydrophobic regions of the protein, resulting in a significant increase in fluorescence emission detected by a PCR system. The melting temperature (Tm) is calculated from the protein melt curve, and changes in Tm (known as ΔTm) are correlated with changes in protein stability and ligand binding. […] For the TSA assay, vehicle (DMSO) or compound was dispensed into MicroAmp Endura optical qPCR plates at the desired volume using an Echo acoustic liquid handler. […] The plates were then centrifuged for 10 s at 1000 rpm and sealed with Clear PCR-compatible plate seals.

[4] = design: method as in ELF screening history; conditions: ref ELF screening history, cited from earlier work; for Enzyme Active: number of ELF enzyme screens in which the compound was active; for Targets active: number of ELF screens in which the compound was active; for Enzyme Active %: share of ELF enzyme targets screened; for Targets Active %: share of all ELF targets screened
[5] = molecular target: T1, IRAP; test: Orthogonal absorbance IRAP assay (L-Leucine para-nitroanilide cleavage); type: biochemical; conditions: 1 mM L-Leucine p-Nitroanilide, 120 min RT; for IC50: read-out: Absorbance pIC50 (converted)
Excerpt: The primary biochemical assay was developed to measure the enzymatic activity of IRAP. […] To establish an orthogonal assay, an alternative L-Leucine para-nitroanilide substrate was used, which IRAP turns over to L-Leucine and para-nitroaniline and is measurable by absorbance at 405 nm (Supplementary Figure S2B).
To ensure biochemically sound, optimal, robust, and affordable assay conditions for large-scale screening, several factors need to be considered. These include the final concentration of substrates, based on the determined substrate Km value; the assay kinetics and reaction linearity; achieving a minimal, rate limiting protein concentration; identifying optimal buffer additives and concentrations; the choice of assay plate type; the final assay volume per well; the stability of reagents; the magnitude and variance of the signal; and the potency and rank order of reference compounds. For both primary fluorescence and orthogonal absorbance assays, non-binding 1536-well assay plates were used, and 0.05% BSA was included in the assay buffer to minimize the issues associated with protein sticking to plastics. The substrate Km values were determined in two separate experiments using two different batches of IRAP protein. For this, the IRAP progress curve was monitored every 5 min for 2 h using an Envision multimode plate reader (PerkinElmer, Waltham, MA, USA). […] To evaluate if using substrate concentrations close to the determined Km values results in sufficient dynamic range within the linear range of the enzymatic reaction, Z′ and S/B were calculated for multiple time points up to 2.5 h in the presence and absence of reference compounds in both assays. The primary fluorescence assay reached an optimal Z′-value after 1 h when using 37.5 μM substrate (Supplementary Figure S5). For the absorbance, 2 h was required for the enzyme reaction time; however, using ~0.4 mM substrate was associated with increased assay variation and a poor Z′ (Supplementary Figure S6).
The orthogonal assay was performed in a black non-binding 1536-well plate (Corning 3728) and sealed with universal lids (Corning 3098). First, 20 nL of test compounds (4 mM) or 100% DMSO was dispensed into the 1536-well assay plates using an Echo acoustic liquid handler (Beckman Coulter). Then, 4 μL of protein working solution (5 × 10^−4 mg/mL) was dispensed to the negative control (min effect) and compound wells (final well concentration 2.5 × 10^−4 mg/mL) using the Certus Flex liquid dispenser (Fritz Gyger AG) and 4 μL assay buffer to the positive control wells (max effect) using the FLEXdrop (PerkinElmer). Next, 4 μL of 2 mM substrate working solution was dispensed into all wells using the FLEXdrop (final well concentration 1 mM). The assay plates were then centrifuged at 187.5× g for 30 s, incubated in the dark at RT for 120 min, and finally read on an Envision plate reader (PerkinElmer) (absorbance at 405 nm, 10 flashes per second). During the dose–response curve analysis in the orthogonal assay, 80 nL of compound (range 2.00 × 10^−3 M–2.74 × 10^−6 M) or 100% DMSO was dispensed into the assay plates using an Echo acoustic liquid handler (Beckman Coulter) with final well concentration range of 20 μM–27.4 nM compound and 1% DMSO.

[6] = read-out: Fluorescence pIC50 (converted)

Row | Fluorescence pIC50 [1] | IC50 ([1]; read-out: Fluorescence IC50) | LipE [1] | Fluorescence + Zn pIC50 [2] | TSA (∆°C), thermal shift of IRAP [3] | Absorbance pIC50 [5] | IC50 [1, 6] | IC50 [2] | ΔTm at 30 µM [3] | IC50 [5] | Compound | Enzyme Active [4] | Targets active [4] | Enzyme Active % [4] | Targets Active % [4]
1 | 5.36 | 4.37 µM | 1.74 | 5.36 | 0.15 °C | < 4.70 |  |  |  |  | O=C(N1CCCC1)C1(CNS(=O)(=O)c2cccc3ccccc23)CC12CCCCC2 (centres unmarked) [QHL37] | 5 | 7 | 12.2% | 9.3%
2 |  |  | 4.89 |  |  |  | 0.355 µM | 0.339 µM | 3.7 °C | 0.794 µM | O=C(NO)C(CS(=O)(=O)N1CCC(c2ccc(F)cc2Cl)C1)C1CCOCC1 (centres unmarked) [QHL2] | 4 | 5 | 4.3% | 3.4%
3 | 5.46 | 3.47 µM | 1.05 | 5.38 |  | <4.70 |  |  | 0 °C |  | Fc1ccc(F)c(Cn2ccc3ncccc32)c1Cl [QHL31] | 5 | 8 | 5.3% | 5.3%
4 |  | 1.26 µM | 3.57 |  |  |  |  | 1.23 µM | 3.55 °C | 5.75 µM | CC(C)C(CS(=O)(=O)N1CCC(c2ccc(F)cc2Cl)C1)C(=O)NO (centres unmarked) [QHL6] | 3 | 5 | 3.2% | 3.4%
5 | 4.74 | 18.2 µM | 2.06 | 4.7 | 0.44 °C | 5.36 |  |  |  |  | c1ccn(CCCSc2nnc3ccc(N4CCCC4)nn23)c1 [QHL50] | 7 | 11 | 8.1% | 7.6%
6 |  |  | 4.85 |  |  |  | 0.316 µM | 0.316 µM | 6.77 °C | 0.871 µM | O=C(Cc1ccccc1S(=O)(=O)N1CCc2ccccc2C1)NO [QHL1, 2-(2-((3,4-dihydroisoquinolin-2(1H)-yl)sulfonyl)phenyl)-N-hydroxyacetamide] | 2 | 7 | 2.1% | 4.7%
7 |  | 2.14 µM | 2.39 |  |  |  |  | 2 µM | -1.91 °C | 16.2 µM | COc1ccc([C@@H]2c3nnnn3CCN2CCCN(C)c2ccccc2)c(C)c1 [QHL13] | 12 | 19 | 14.1% | 13.2%
8 |  | 1.91 µM | 1.68 |  |  |  |  | 1.95 µM | -0.15 °C | 13.8 µM | Cc1cccc(Cl)c1CNc1ncnc2ncn(C)c12 [QHL12] | 3 | 3 | 3.6% | 2.1%
9 |  | 3.24 µM | 1.54 |  |  |  |  | 5.62 µM | 0.15 °C | 15.5 µM | CSc1[nH]c(-c2ccccc2)nc1S(=O)(=O)c1ccccc1 [QHL28] | 4 | 6 | 4.3% | 4.0%
10 | 5.33 | 4.68 µM | 0.66 | 5.33 | 0 °C | 5.12 |  |  |  |  | CCOC(=O)c1c(Cl)cc(C)nc1N1CCCC(Cc2ccc(C(=O)N(C)C)cc2)C1 (centres unmarked) [QHL39] | 6 | 7 | 7.1% | 4.9%
11 | 5.43 | 3.72 µM | 3.82 | 5.42 | 0.74 °C | 5.510 |  |  |  |  | COc1cc2c(cc1-c1cnco1)C(=O)N(C)C(C)(C=Cc1ccncc1)N2 (centres unmarked) [QHL33] | 4 | 5 | 4.3% | 3.4%
